# Assay results reported in patent US4218442A, “1-Epi-fortimicin A and derivatives” (Abbott Laboratories, priority 1979, dated 1980).
# Structures can show the parent of a compound that is named as a salt. Where two headings read alike, the source gives them in different places.
# Tests used:
# Experiment in all cases: MIC, two-fold agar dilution, Mueller-Hinton agar
# Format in all cases: cell-based
# [1] = system: Streptococcus faecalis 10541; settings: read-out: minimum inhibitory concentration (MIC)
# Description: (§1) The in vitro antibiotic activity is determined by a two-fold dilution test using Mueller-Hinton agar, 10 ml per Petri plate. The inoculum of approximately 1×10^5 of the indicated test organism is delivered by the Steer's replicator. The test is incubated at 37° C. for 24 hours.
# [2] = system: Shigella sonnei 9290; settings: 37° C., 24 hours, read-out: minimum inhibitory concentration (MIC)
# Description: as §1
# [3] = system: Pseudomonas aeruginosa KY 8512; settings: read-out: minimum inhibitory concentration (MIC)
# Description: as §1
# [4] = system: Staphylococcus aureus Smith; settings: read-out: minimum inhibitory concentration (MIC)
# Description: as §1
# [5] = system: Escherichia coli BL 3676(RES); settings: read-out: minimum inhibitory concentration (MIC)
# Description: as §1
# [6] = system: Klebsiella pneumoniae 10031; settings: read-out: minimum inhibitory concentration (MIC)
# Description: as §1
# [7] = system: Serratia marcescens 4003; settings: read-out: minimum inhibitory concentration (MIC)
# Description: as §1
# [8] = system: Escherichia coli JUHL; settings: read-out: minimum inhibitory concentration (MIC)
# Description: as §1
# [9] = system: Providencia stuartii 1577; settings: read-out: minimum inhibitory concentration (MIC)
# Description: as §1
# [10] = system: Pseudomonas aeruginosa BMH #10; settings: read-out: minimum inhibitory concentration (MIC)
# Description: as §1
# [11] = system: Escherichia coli 76-2; settings: read-out: minimum inhibitory concentration (MIC)
# Description: as §1
# [12] = system: Pseudomonas aeruginosa 27853; settings: read-out: minimum inhibitory concentration (MIC)
# Description: as §1
# [13] = system: Pseudomonas aeruginosa 209; settings: read-out: minimum inhibitory concentration (MIC)
# Description: as §1
# [14] = system: Proteus rettgeri U-6333; settings: Providencia rettgeri, read-out: minimum inhibitory concentration (MIC)
# Description: as §1
# [15] = system: Proteus vulgaris JJ; settings: read-out: minimum inhibitory concentration (MIC)
# Description: as §1
# [16] = system: Pseudomonas aeruginosa KY 8516; settings: read-out: minimum inhibitory concentration (MIC)
# Description: as §1
# [17] = system: Klebsiella pneumoniae KY 4262; settings: read-out: minimum inhibitory concentration (MIC)
# Description: as §1
# [18] = system: Salmonella typhimurium Ed. #9; settings: Salmonella enterica, read-out: minimum inhibitory concentration (MIC)
# Description: as §1
# [19] = system: Proteus mirabilis Fin #9; settings: read-out: minimum inhibitory concentration (MIC)
# Description: as §1
# [20] = system: Enterobacter aerogenes 13048; settings: read-out: minimum inhibitory concentration (MIC)
# Description: as §1
structure (smiles),measurement,setting,value
"C[C@H](N)[C@@H]1CC[C@@H](N)[C@@H](O[C@@H]2[C@H](N)[C@H](O)[C@H](O)[C@@H](N(C)C(=O)CN)[C@H]2O)O1 [Ex. 13, 1-Epi-3-O-demethylfortimicin A tetrahydrochloride]",MIC,"[1]; Enterococcus faecalis, Streptococcus faecalis 10541, 37° C., 24 hours",50 µg/mL
same,MIC,[2],12.5 µg/mL
same,MIC,"[3]; KY8512, Pseudomonas aeruginosa KY 8512, 37° C., 24 hours",6.2 µg/mL
same,MIC,"[4]; Staphylococcus aureus Smith, 37° C., 24 hours",0.78 µg/mL
same,MIC,"[5]; Escherichia coli BL 3676(RES), 37° C., 24 hours",25 µg/mL
same,MIC,"[6]; Klebsiella pneumoniae 10031, 37° C., 24 hours",3.1 µg/mL
same,MIC,"[7]; Serratia marcescens 4003, 37° C., 24 hours",3.1 µg/mL
same,MIC,"[8]; Escherichia coli JUHL, 37° C., 24 hours",6.2 µg/mL
same,MIC,"[9]; Providencia stuartii 1577, 37° C., 24 hours",6.2 µg/mL
same,MIC,"[10]; Pseudomonas aeruginosa BMH #10, 37° C., 24 hours",0.78 µg/mL
same,MIC,"[11]; 762, Escherichia coli 76-2, 37° C., 24 hours",3.1 µg/mL
same,MIC,"[12]; Pseudomonas aeruginosa 27853, 37° C., 24 hours",6.2 µg/mL
same,MIC,"[13]; Pseudomonas aeruginosa 209, 37° C., 24 hours",100 µg/mL
same,MIC,"[14]; U6333, Proteus rettgeri U-6333, 37° C., 24 hours",3.1 µg/mL
same,MIC,"[15]; Proteus vulgaris JJ, 37° C., 24 hours",3.1 µg/mL
same,MIC,"[16]; KY8516, Pseudomonas aeruginosa KY 8516, 37° C., 24 hours",25 µg/mL
same,MIC,"[17]; KY4262, Klebsiella pneumoniae KY 4262, 37° C., 24 hours",6.2 µg/mL
same,MIC,"[18]; Salmonella typhimurium Ed. #9, 37° C., 24 hours",3.1 µg/mL
same,MIC,"[19]; Proteus mirabilis Fin #9, 37° C., 24 hours",6.2 µg/mL
same,MIC,"[20]; Klebsiella aerogenes, Enterobacter aerogenes 13048, 37° C., 24 hours",3.1 µg/mL
"CO[C@H]1[C@@H](O)[C@@H](N)[C@@H](O[C@H]2O[C@H]([C@H](C)N)CC[C@H]2N)[C@H](O)[C@@H]1N(C)C(=O)CN [Ex. 3, 1-Epi-fortimicin A tetrahydrochloride]",MIC,"[1]; Enterococcus faecalis, 10541, 24 h",100 µg/mL
same,MIC,[2],12.5 µg/mL
same,MIC,"[3]; Pseudomonas aeruginosa, KY8512, 24 h",25 µg/mL
same,MIC,"[4]; Staphylococcus aureus, 24 h",1.56 µg/mL
same,MIC,"[5]; Escherichia coli, 24 h",50 µg/mL
same,MIC,"[6]; Klebsiella pneumoniae, 10031, 24 h",3.1 µg/mL
same,MIC,"[7]; Serratia marcescens, 4003, 24 h",3.1 µg/mL
same,MIC,"[8]; Escherichia coli, 24 h",12.5 µg/mL
same,MIC,"[9]; Providencia stuartii, 1577, 24 h",3.1 µg/mL
same,MIC,"[10]; Pseudomonas aeruginosa, 24 h",0.78 µg/mL
same,MIC,"[11]; Escherichia coli, 762, 24 h",6.2 µg/mL
same,MIC,"[12]; Pseudomonas aeruginosa, 27853, 24 h",50 µg/mL
same,MIC,"[13]; Pseudomonas aeruginosa, 209, 24 h",100 µg/mL
same,MIC,"[14]; U6333, 24 h",3.1 µg/mL
same,MIC,"[15]; Proteus vulgaris, 24 h",12.5 µg/mL
same,MIC,"[16]; Pseudomonas aeruginosa, KY8516, 24 h",100 µg/mL
same,MIC,"[17]; Klebsiella pneumoniae, KY4262, 24 h",6.2 µg/mL
same,MIC,"[18]; TYPHIMURIUM, 24 h",3.1 µg/mL
same,MIC,"[19]; Proteus mirabilis, 24 h",12.5 µg/mL
same,MIC,"[20]; Klebsiella aerogenes, 13048, 24 h",6.2 µg/mL
